Data from patent US6069254A, “Carboxamide derivatives of piperidine for the treatment of thrombosis disorders” (Ortho Pharmaceutical Corp., priority 1997, dated 2000).
Where a name gives a salt, the structure may show the parent alone. Read-outs that look alike come from different tables or passages of the source.

Assays:
GPIIb/IIIa [1] = molecular target: T1, GPIIb/IIIa (Homo sapiens, UniProt P05106+P08514); test: In Vitro Solid Phase Purified Glycoprotein IIb/IIIa Binding Assay (fibrinogen binding)
Experimental: In Vitro Solid Phase Purified Glycoprotein IIB/IIIA Binding Assay
The plate is covered and incubated overnight at 4° C. The GPIIb/IIIa solution is discarded and 150 μl of 5% BSA is added and incubated at RT for 1-3 h. The plate is washed extensively with modified Tyrodes buffer. Biotinylated fibrinogen (25 μl/well) at 2×final concentration is added to the wells that contain the test compounds (25 μl/well). The plate is covered and incubated at RT for 2-4 h. Twenty minutes prior to incubation completion, one drop of Reagent A (Vecta Stain ABC Horse Radish Peroxidase kit, Vector Laboratories, Inc.) and one drop Reagent B are added with mixing to 5 mL modified Tyrodes buffer mix and let stand. The ligand solution is discarded and the plate washed (5×200 μl/well) with modified Tyrodes buffer. Vecta Stain HRP-Biotin-Avidin reagent (50 μl/well, as prepared above) is added and incubated at RT for 15 min. The Vecta Stain solution is discarded and the wells washed ([…]) with modified Tyrodes buffer. Developing buffer (10 mL of 50 mM citrate/phosphate buffer @ pH 5.3, 6 mg Q-phenylenediamine, 6 μl 30% H2 O2; 50 μl/well) is added and incubated at RT for 3-5 min, and then 2N H2 SO4 (50 μl/well) is added. The absorbance is read at 490 nm.

[2] = system: gel-filtered platelets (thrombin-induced aggregation); test: In Vitro Inhibition of Thrombin-Induced Gel-Filtered Platelet Aggregation Assay; assay type: cell-based; conditions: Homo sapiens; for inhibition at 50 µM: read-out: Platelet Aggregation % Inh. (50 μM); for IC50: read-out: Platelet Aggregation IC50
Experimental: In Vitro Inhibition of Thrombin-Induced Gel-Filtered Platelet Aggregation Assay
The percentage of platelet aggregation is calculated as an increase in light transmission of compound-treated platelet concentrate vs. control-treated platelet concentrate. Human blood is obtained from drug free, normal donors into tubes containing 0.13M sodium citrate. Platelet rich plasma (PRP) is collected by centrifugation of whole blood at 200×g for 10 min at 25° C. The PRP (5 mL) is gel filtered through Sepharose 2B (bed volume 50 mL), and the platelet count is adjusted to 2×10^7 platelets per sample. The following constituents are added to a siliconized cuvette: concentrated platelet filtrate and Tyrode's buffer (0.14M NaCl, 0.0027M KCl, 0.012M NaHCO3,0.76 mM Na2 HPO4, 0.0055M glucose, 2 mg/mL BSA and 5.0 mM HEPES @ pH 7.4) in an amount equal to 350 μl, 50 μl of 20 mM calcium and 50 μl of the test compound. Aggregation is monitored in a BIODATA aggregometer for the 3 min following the addition of agonist (thrombin 50 μl of 1 unit/mL).

[3] = system: collagen or ADP-induced ex vivo platelet aggregation; test: Ex Vivo Dog Study: ex vivo platelet aggregation; assay type: in vivo
Experimental: Adult mongrel dogs (8-13 kg) were anesthetized with sodium pentobarbital ([…], i.v.) and artificially respired. Arterial blood pressure and heart rate were measured using a Millar catheter-tip pressure transducer inserted in a femoral artery Another Millar transducer was placed in the left ventricle (LV) via a carotid artery to measure LV end diastolic pressure and indices of myocardial contractility. A lead electrocardiogram was recorded from limb electrodes. Catheters were placed in a femoral artery and vein to sample blood and infuse drugs, respectively. Responses were continuously monitored using a Modular Instruments data aquisition system.
Separate blood samples (1.5 ml) were withdrawn in EDTA to determine hematocrit and cell counts (platelets, RBC's and white cells). Template bleeding times were obtained from the buccal surface using a symplate incision devise and Whatman filter paper.
Aggregation of PRP was performed using a BioData aggregometer. Aggregation of whole blood used a Chronolog impedance aggregometer. PT and APTT were determined on either a BioData or ACL 3000+ coagulation analyser. Cells were counted with a Sysmex K-1000.
Compounds were solubilized in a small volume of dimethylformamide (DMF) and diluted with saline to a final concentration of 10% DMF. Compounds were administered by the intravenous route with a Harvard infusion pump. […] Data were obtained after each dose and in 30 min intervals following the end of drug administration. Oral doses were administered as aqueous solutions via syringe.

thrombus formation = test: canine arteriovenous shunt model of thrombosis; assay type: in vivo; conditions: iv infusion
GPIIb/IIIa [4] = molecular target: T1, GPIIb/IIIa; conditions: background statement; cited from earlier work
[5] = system: platelets (thrombin-induced platelet aggregation); conditions: L. Alig, J. Med. Chem. 1992, 35, 4393; read-out: IC50 against in vitro thrombin-induced platelet aggregation; cited from earlier work
[6] = 50 μM, thrombin-induced aggregation of gel-filtered platelets
[7] = thrombin-induced aggregation of gel-filtered platelets
[8] = isolated GPIIb/IIIa, biotinylated fibrinogen, read-out: Fibrinogen Binding IC50

Row | Molecule | inhibition at 50 µM [2, 6] [%] | IC50 (GPIIb/IIIa [1]; [8]) [nM] | further results
1 | NCCCCCC(=O)N1CCCC(C(=O)NC(CC(=O)O)c2cccnc2)C1 (stereo not drawn) [Compound 10, N-(6-Aminocaproyl)-nipecotyl-3-amino-3-(3-pyridyl)propionic acid.3TFA] | 85 | – | IC50 (GPIIb/IIIa [1]): 19 nM; IC50 [2, 7]: 1600 nM
2 | COc1cccc(NC(=O)N[C@@H](CNC(=O)[C@@H]2CCCN(C(=O)CCC3CCNCC3)C2)C(=O)O)c1 [Compound 22, N-3-(4-Piperidinepropionyl)-R-(-)nipecotyl-[(S)-2-(3-methoxyanilino)carbonylamino-3-amino]propionic acid] | – | 0.7 | –
3 | O=C(NC[C@@H]1NC(=O)N(Cc2ccccc2)C1=O)[C@@H]1CCCN(C(=O)CCC2CCNCC2)C1 [Compound 29, N-3-(4-Piperidinepropionyl)-R-(-)nipecotyl-aminomethyl-5-(S)-(3-N-benzyl)imidazoline-2,4-dione.HCl] | 100 | 68 | –
4 | O=C(O)C[C@H](NC(=O)C1CCCN(CCCC2CCNCC2)C1)c1ccc2c(c1)OCO2 (stereo partly drawn) [Compound 20, N-3-(4-Piperidinepropyl)-nipecotyl-[(S)-3-amino-3-(3,4-methylenedioxyphenyl)]propionic acid.2TFA] | – | 0.7 | –
5 | O=C(O)C[C@H](NC(=O)[C@@H]1CCCN(C(=O)CCC2CCNCC2)C1)c1ccc2c(c1)OCO2 [Compound 16, N-3-(4-Piperidinepropionyl)-R-(-)-nipecotyl-[(S)-3-amino-3-(3,4-methylenedioxyphenyl)]propionic acid.HCl] | – | 0.5 | inhibition at 50 µM (GPIIb/IIIa [1]; read-out: Fibrinogen Binding % Inh. (50 μM)): 100%; inhibition at 50 µM [2]: 94%; IC50 [2]: 28 nM; Duration of >50% inhibition of collagen or ADP induced ex vivo platelet aggregation ([3]; intravenous, 0.1 mpk): 60 min; Duration of >50% inhibition of collagen or ADP induced ex vivo platelet aggregation ([3]; oral, 1 mpk): 60 min; Duration of >50% inhibition of collagen or ADP induced ex vivo platelet aggregation ([3]; oral, 3 mpk): > 180 min; thrombus weight vs. vehicle control (thrombus formation; 10 μg/kg/min cumulative dose): 75%; thrombus weight vs. vehicle control (thrombus formation; 30 μg/kg/min cumulative dose): 37%; thrombus weight vs. vehicle control (thrombus formation; 100 μg/kg/min cumulative dose): 12%; efficacy in canine arteriovenous shunt model of thrombosis (thrombus formation): have shown efficacy in a canine arteriovenous shunt model of thrombosis in a dose-dependent fashion
6 | COc1cc(NC(=O)N[C@@H](CNC(=O)[C@@H]2CCCN(C(=O)CCC3CCNCC3)C2)C(=O)O)cc(OC)c1 [Compound 26, N-3-(4-Piperidinepropionyl)-R-(-)nipecotyl-[(S)-2-(3,5-dimethoxyanilino)carbonylamino-3-amino]propionic acid.HCl] | – | 0.3 | –
7 | O=C(Nc1ccc2ccccc2c1)N[C@@H](CNC(=O)[C@@H]1CCCN(C(=O)CCC2CCNCC2)C1)C(=O)O [Compound 28, N-3-(4-Piperidinepropionyl)-R-(-)nipecotyl-[(S)-2-(2-naphthylamino)carbonylamino-3-amino]propionic acid.HCl] | 100 | 0.2 | –
8 | O=C(NCCc1ccccc1)N[C@@H](CNC(=O)[C@@H]1CCCN(C(=O)CCC2CCNCC2)C1)C(=O)O [Compound 30, N-3-(4-Piperidinepropionyl)-R-(-)nipecotyl-[(S)-2-(2-phenethylamino)carbonylamino-3-amino]propionic acid.HCO2 H] | 100 | 0.8 | –
9 | HHLGGAKQAGDV [γ-chain peptide region of fibrinogen, γ400-411] | – | – | inhibition of fibrinogen binding to GPIIb/IIIa (GPIIb/IIIa [4]): shown to inhibit fibrinogen binding to GPIIb/IIIa
10 | O=C(O)C(O)CNC(=O)[C@@H]1CCCN(C(=O)CCC2CCNCC2)C1 (single isomer, unassigned) [Compound 11, N-3-(4-Piperidinepropionyl)-R-(-)-nipecotyl-(3-amino-2-hydroxy) propionic acid.TFA] | – | 4 | –
11 | Cc1ccc([C@H](CC(=O)O)NC(=O)[C@@H]2CCCN(C(=O)CCC3CCNCC3)C2)cn1 [Compound 31, N-3-(4-Piperidinepropionyl)-R-(-)nipecotyl-[(S)-3-amino-3-(6-methyl-3-pyridyl)]propionic acid.2HCl] | 100 | 0.3 | –
12 | Arg-Gly-Asp [Arg-Gly-Asp (RGD)] | – | – | inhibition of fibrinogen binding to GPIIb/IIIa (GPIIb/IIIa [4]): shown to inhibit fibrinogen binding to GPIIb/IIIa
13 | O=C(O)C[C@H](NC(=O)[C@@H]1CCCN(C(=O)CCC2CCNCC2)C1)c1cccnc1 [Compound 21, N-3-(4-Piperidinepropionyl)-R-(-)-nipecotyl-[(S)-3-amino-3-(3-pyridyl)]propionic acid.2TFA] | 100 | 0.5 | IC50 [2, 7]: 60 nM
14 | O=C(O)C[C@H](NC(=O)[C@@H]1CCCN(C(=O)CCC2CCNCC2)C1)c1cnc2ccccc2c1 [Compound 18, N-3-(4-Piperidinepropionyl)-R-(-)-nipecotyl-[(S)-3-amino-3-(3-quinolinyl)]propionic acid.2HCl] | 100 | 0.2 | efficacy in canine arteriovenous shunt model of thrombosis (thrombus formation): have shown efficacy in a canine arteriovenous shunt model of thrombosis in a dose-dependent fashion
15 | O=C(NC[C@H](NS(=O)(=O)Cc1ccccc1)C(=O)O)[C@@H]1CCCN(C(=O)CCC2CCNCC2)C1 [Compound 25, N-3-(4-Piperidinepropionyl)-R-(-)nipecotyl-[(S)-2-benzylsulfonylamino-3-amino]propionic acid.HCl] | – | 0.3 | IC50 [2, 7]: 7 nM
16 | O=C(N[C@@H](CNC(=O)[C@@H]1CCCN(C(=O)CCC2CCNCC2)C1)C(=O)O)OCc1cccc(Cl)c1 [Compound 24, N-3-(4-Piperidinepropionyl)-R-(-)nipecotyl-[(S)-2-(3-chlorobenzyloxy)carbonylamino-3-amino]propionic acid.HCl] | 100 | – | –
17 | O=C(O)C[C@H](NC(=O)[C@@H]1CCCN(C(=O)N2CCC(C3CCNCC3)CC2)C1)c1cccnc1 [Compound 27, N-[(4,4'-Bipiperidin-1-yl-)carbonyl]-R-(-)-nipecotyl-[(S)-3-amino-3-(3-pyridyl)]propionic acid.3HCl] | 100 | 0.6 | –
18 | CN(CC(=O)c1ccc(OCC(=O)O)c(OCC(=O)O)c1)C(=O)c1ccc(C(=N)N)cc1 [Ro-438857] | – | – | IC50 [5]: 94 nM
19 | O=C(O)C[C@H](NC(=O)[C@@H]1CCCN(C(=O)CCC2CCNCC2)C1)c1cncc(Br)c1 [Compound 32, N-3-(4-Piperidinepropionyl)-R-(-)nipecotyl-[(S)-3-amino-3-(5-bromo-3-pyridyl)]propionic acid.2HCl] | – | 0.4 | –
20 | O=C(N[C@@H](CNC(=O)[C@@H]1CCCN(C(=O)CCC2CCNCC2)C1)C(=O)O)OCc1ccccc1 [Compound 23, N-3-(4-Piperidinepropionyl)-R-(-)nipecotyl-[(S)-2-benzyloxycarbonylamino-3-amino]propionic acid.HCl] | – | 0.3 | –
21 | N=CN1CCC(CCC(=O)N2CCC[C@@H](C(=O)N[C@@H](CC(=O)O)c3cccnc3)C2)CC1 [Compound 33, N-3-(4-Formamidinopiperidinepropionyl)-R-(-)nipecotyl-[(S)-3-amino-3-(3-pyridyl)]propionic acid.2HCl] | 100 | 0.7 | IC50 [2, 7]: 300 nM
